Target: T1, Androgen Receptor (AR) in the LNCaP prostate carcinoma cell line (Homo sapiens, UniProt P10275, T878A)
T1 construct: cell based immuno-fluorescence assay using the LNCaP prostate epithelial cell line; host or cells: LNCaP clone FGC
T1 sequence (P10275 1-920 T878A): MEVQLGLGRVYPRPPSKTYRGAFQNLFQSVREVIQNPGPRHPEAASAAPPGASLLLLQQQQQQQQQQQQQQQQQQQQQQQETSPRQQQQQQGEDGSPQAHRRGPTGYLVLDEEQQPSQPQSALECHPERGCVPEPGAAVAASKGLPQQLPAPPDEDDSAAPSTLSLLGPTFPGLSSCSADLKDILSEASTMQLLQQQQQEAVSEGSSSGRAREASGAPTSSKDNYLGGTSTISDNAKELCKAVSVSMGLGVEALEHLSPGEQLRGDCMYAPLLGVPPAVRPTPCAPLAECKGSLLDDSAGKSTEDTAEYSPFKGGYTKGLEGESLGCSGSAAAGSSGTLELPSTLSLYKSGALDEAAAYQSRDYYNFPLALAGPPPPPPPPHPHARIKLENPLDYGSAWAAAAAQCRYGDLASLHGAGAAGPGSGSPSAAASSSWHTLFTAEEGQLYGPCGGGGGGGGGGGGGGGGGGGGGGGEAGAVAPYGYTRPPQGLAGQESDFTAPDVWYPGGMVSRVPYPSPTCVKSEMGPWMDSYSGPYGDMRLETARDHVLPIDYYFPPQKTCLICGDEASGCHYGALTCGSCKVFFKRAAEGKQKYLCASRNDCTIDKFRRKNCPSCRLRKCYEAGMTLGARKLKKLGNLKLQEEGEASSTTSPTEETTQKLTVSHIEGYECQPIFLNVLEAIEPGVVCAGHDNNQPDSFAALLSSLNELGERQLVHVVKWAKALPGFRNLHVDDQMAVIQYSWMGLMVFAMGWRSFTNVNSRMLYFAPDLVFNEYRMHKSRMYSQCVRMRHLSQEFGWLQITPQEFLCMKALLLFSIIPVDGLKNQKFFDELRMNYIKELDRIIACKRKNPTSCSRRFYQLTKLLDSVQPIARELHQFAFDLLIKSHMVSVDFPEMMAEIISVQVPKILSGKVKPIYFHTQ
Test: LNCaP Androgen Receptor Down-Regulation Cell Assay (immunofluorescence end point)
Assay type: cell-based
Conditions: LNCaP cells, compound incubation 20-22 hours, concentration giving 50% reduction of the AR signal
Protocol: The ability of compounds to reduce Androgen Receptor (AR) numbers was assessed in a cell based immuno-fluorescence assay using the LNCaP prostate epithelial cell line.
This immunofluorescence end point assay measures the ability of a test compound to down-regulate and reduce measured levels of the AR in the LNCaP prostate carcinoma cell line (LNCaP clone FGC (CRL-1740) obtained from the American Type Culture Collection (ATCC)).
LNCaP cells were cultured in Growth Medium (phenol red free Roswell Park Memorial Institute (RPMI) 1640 (Invitrogen Code no. 11835-063) containing 2 mM L-Glutamine (Invitrogen Code no. 25030-024) and 1% (v/v) Penicillin/Streptomycin (10000 units/ml Penicillin and 10000 μg/ml of Streptomycin utilising penicillin G (sodium salt) and streptomycin sulphate: prepared in normal saline, Invitrogen Code no. 15140122) and 10% (v/v) foetal bovine serum (FBS)) in a 5% CO2 air incubator at 37° C. Cells for assay were harvested from T175 stock flasks by washing once in PBS (phosphate buffered saline, pH 7.4) (Invitrogen Code no. 14190-094) and harvested using 5 mls of 1× Trypsin/ethylaminediaminetetraacetic acid (EDTA) (10× Trypsin-EDTA, 5.0 g/L Trypsin, 2.0 g/L of EDTA.4Na and 8.5 g/L of NaCl, without Phenol Red, Invitrogen Code no. 15400-054) diluted in PBS solution. A 5 ml volume of Growth Medium was added to each flask (as above except that 5% (v/v) charcoal stripped FBS (HyClone Code no. SH30068.03) was included instead of 10% (v/v) FBS). Cells were syringed at least twice using a sterile 18 G×1.5″ (1.2×40 mm) broad gauge needle and cell density was measured using a haemocytometer. Cells were further diluted in Growth Medium plus 5% (v/v) charcoal stripped FBS and seeded at a density of 6.5×10^3 cells per well (in 90 ul) into transparent, black, tissue culture treated 96 well plates (Packard, No. 6005182).
Test data reported herein was generated using two different compounds preparation and dosing methods. In method (1) a 10 mM compound stock solution in 100% (v/v) DMSO was serially diluted in 4-fold steps in 100% (v/v) DMSO using a Thermo Scientific Matrix SerialMate. The diluted compounds were then further diluted 1 in 30 in assay media using a Thermo Scientific Matrix PlateMate and a 10 μl aliquot of this dilution was dosed to cells manually using a multi-channel pipette. In method (2) starting with a 10 mM compound stock solution, the Labcyte Echo 550 was used to generate a compound concentration response set diluted in 30 μl of assay media. The Echo 550 is a liquid handler that uses acoustic technology to perform direct microplate-to-microplate transfers of DMSO compound solutions. The system can be programmed to transfer volumes as low as 2.5 nL in multiple increments between microplates and in so doing generates a serial dilution of compound which is then back-filled to normalise the DMSO concentration across the dilution range. A 10 μl volume of diluted compound is then dosed to cells using a Thermo Scientific Matrix PlateMate.
Plates were incubated overnight at 37° C., 5% CO2. Wells were then dosed with compound prepared by one of the 2 methods above and further incubated for 20-22 hours at 37° C., 5% CO2. Plates were fixed by the addition of 20 μl of 10% (v/v) formaldehyde solution (in PBS) to each well (final formaldehyde conc.=1.67% (v/v)) and left at room temperature for 10 mins. This fixative solution was removed and cells were washed with 250 μl of PBS/0.05% (v/v) Tween 20 (PBST) using an automated plate washer. This process was then repeated twice more.
Immunostaining was performed at room temperature. Cells were permeabilised by the addition of 35 μl of PBS containing 0.5% Tween 20 and incubated for 1 hour at room temperature. Permeabilisation solution was removed and cells were washed with 250 μl of PBST using an automated plate washer. This process was then repeated twice more. […]

IC50 [µM]	Compound
1.5	CCN1CCN(CCOc2ccc(C3CCN(C4=Nn5c(nnc5C(F)(F)F)CC4)CC3)cc2)CC1=O [Example 46, 1-ethyl-4-[2-(4-{1-[3-(trifluoromethyl)-7,8-dihydro[1,2,4]triazolo[4,3-b]pyridazin-6-yl]piperidin-4-yl}phenoxy)ethyl]piperazin-2-one]
4.1	CN(C)C(=O)COc1ccc(C2CCN(C3=Nn4c(nnc4C(F)(F)F)CC3)CC2)cc1 [Example 20, N,N-dimethyl-2-(4-{1-[3-(trifluoromethyl)-7,8-dihydro[1,2,4]triazolo[4,3-b]pyridazin-6-yl]piperidin-4-yl}phenoxy)acetamide]
3.2	FC(F)(F)c1nnc2n1N=C(N1CCC(c3c[nH]c4ncccc34)CC1)CC2 [Example 18, 6-[4-(1H-pyrrolo[2,3-b]pyridin-3-yl)piperidin-1-yl]-3-(trifluoromethyl)-7,8-dihydro[1,2,4]triazolo[4,3-b]pyridazine]
4.1	Fc1cccc(CN2CCN(C3=Nn4c(nnc4C(F)(F)F)CC3)CC2)c1F [Example 9, 6-[4-(2,3-difluorobenzyl)piperazin-1-yl]-3-(trifluoromethyl)-7,8-dihydro[1,2,4]triazolo[4,3-b]pyridazine]
0.55	FC(F)(F)c1ccn(CCOc2ccc(C3CCN(C4=Nn5c(nnc5C(F)(F)F)CC4)CC3)cc2)n1 [Example 44, 3-(trifluoromethyl)-6-[4-(4-{2-[3-(trifluoromethyl)-1H-pyrazol-1-yl]ethoxy}phenyl)piperidin-1-yl]-7,8-dihydro[1,2,4]triazolo[4,3-b]pyridazine]
0.045	C[C@@H]1C(=O)N(C)CCN1CCOc1ccc(C2CCN(C3=Nn4c(nnc4C(F)(F)F)CC3)CC2)cc1 [Example 49, (3R)-1,3-dimethyl-4-[2-(4-{1-[3-(trifluoromethyl)-7,8-dihydro[1,2,4]triazolo[4,3-b]pyridazin-6-yl]piperidin-4-yl}phenoxy)ethyl]piperazin-2-one]
1	Fc1ccc(C(F)F)c(CN2CCN(C3=Nn4c(nnc4C(F)(F)F)CC3)CC2)c1 [Example 10, 6-[4-[2-(difluoromethyl)-5-fluorobenzyl]piperazin-1-yl]-3-(trifluoromethyl)-7,8-dihydro[1,2,4]triazolo[4,3-b]pyridazine]
1.2	FC(F)(F)c1nnc2n1N=C(N1CCC(c3c[nH]c4ccccc34)CC1)CC2 [Example 3, 6-[4-(1H-indol-3-yl)piperidin-1-yl]-3-(trifluoromethyl)-7,8-dihydro[1,2,4]triazolo[4,3-b]pyridazine]
20	CC(=O)N1CCN(CCOc2ccc(N3CCN(C4=Nn5c(nnc5C(F)(F)F)CC4)CC3)cc2)CC1 [Example 32, 6-(4-{4-[2-(4-acetylpiperazin-1-yl)ethoxy]phenyl}piperazin-1-yl)-3-(trifluoromethyl)-7,8-dihydro[1,2,4]triazolo[4,3-b]pyridazine]
0.7	CC(=O)N1CCCN(CCOc2ccc(C3CCN(C4=Nn5c(nnc5C(F)(F)F)CC4)CC3)cc2)CC1 [Example 48, 6-(4-{4-[2-(4-acetyl-1,4-diazepan-1-yl)ethoxy]phenyl}piperidin-1-yl)-3-(trifluoromethyl)-7,8-dihydro[1,2,4]triazolo[4,3-b]pyridazine]
4.5	Cn1nccc1CCOc1ccc(C2(O)CCN(C3=Nn4c(nnc4C(F)(F)F)CC3)CC2)cc1 [Example 36, 4-{4-[2-(1-methyl-1H-pyrazol-5-yl)ethoxy]phenyl}-1-[3-(trifluoromethyl)-7,8-dihydro[1,2,4]triazolo[4,3-b]pyridazin-6-yl]piperidin-4-ol]
3.2	FC(F)(F)c1nnc2n1N=C(N1CC=C(c3c[nH]c4ccccc34)CC1)CC2 [Example 2, 6-[4-(1H-indol-3-yl)-5,6-dihydropyridin-1(2H)-yl]-3-(trifluoromethyl)-7,8-dihydro-[1,2,4]triazolo[4,3-b]pyridazine]
2.9	FC(F)(F)c1nnc2n1N=C(N1CCN(Cc3cccc(Cl)c3)CC1)CC2 [Example 7, 6-[4-(3-chlorobenzyl)piperazin-1-yl]-3-(trifluoromethyl)-7,8-dihydro[1,2,4]triazolo[4,3-b]pyridazine]
0.32	CC(=O)N1CCN(CCOc2ccc(C3CCN(C4=Nn5c(nnc5C(F)(F)F)CC4)CC3)cc2)C[C@@H]1C [Example 52, 6-[4-(4-{2-[(3S)-4-acetyl-3-methylpiperazin-1-yl]ethoxy}phenyl)piperidin-1-yl]-3-(trifluoromethyl)-7,8-dihydro[1,2,4]triazolo[4,3-b]pyridazine]
> 15	OC1(c2ccc(F)cc2)CCN(C2=Nn3c(nnc3C(F)(F)F)CC2)CC1 [Example 14, 4-(4-fluorophenyl)-1-[3-(trifluoromethyl)-7,8-dihydro[1,2,4]triazolo[4,3-b]pyridazin-6-yl]piperidin-4-ol]
4.8	CCc1nccn1CCOc1ccc(N2CCN(C3=Nn4c(nnc4C(F)(F)F)CC3)CC2)cc1 [Example 39, 6-(4-{4-[2-(2-ethyl-1H-imidazol-1-yl)ethoxy]phenyl}piperazin-1-yl)-3-(trifluoromethyl)-7,8-dihydro[1,2,4]triazolo[4,3-b]pyridazine]
1.3	COCCN(C)C(=O)CCCOc1ccc(C2CCN(C3=Nn4c(nnc4C(F)(F)F)CC3)CC2)cc1 [Example 23, N-(2-methoxyethyl)-N-methyl-4-(4-{1-[3-(trifluoromethyl)-7,8-dihydro[1,2,4]triazolo[4,3-b]pyridazin-6-yl]piperidin-4-yl}phenoxy)butanamide]
2.7	FC(F)(F)c1cccc(CN2CCN(C3=Nn4c(nnc4C(F)(F)F)CC3)CC2)c1 [Example 8, 3-(trifluoromethyl)-6-{4-[3-(trifluoromethyl)benzyl]piperazin-1-yl}-7,8-dihydro[1,2,4]triazolo[4,3-b]pyridazine]
0.18	C[C@@H](COc1ccc(C2CCN(C3=Nn4c(nnc4C(F)(F)F)CC3)CC2)cc1)N1CCN(C)C(=O)C1 (single isomer, unassigned) [Example 55]
